Measured values taken from patent US12377068B2, “In vitro and xenograft anti-tumor activity of a halogenated-xanthene against refractory pediatric solid tumors” (Provectus Pharmatech, Inc., priority 2018, dated 2025).

Assays:
[1] = system: IMR5; experiment: combination studies with PV-10, alamar Blue; assay type: cell-based; conditions: IMR5, in combination with 50 μM PV-10, 96 hours
Experimental: (§1) Cells were cultured as described for cytotoxicity assays. A dilution series of three test drugs (doxorubicin, etoposide, vincristine) were prepared in DMEM containing either PBS (vehicle control) or PV10 (50 µM final) and added to cells in triplicate. Plates were cultured, washed and cell viability analyzed by alamar Blue®, as described for cytotoxicity assays. Combination indices (CI) for IC50 of test drug in combination with 50 µM PV-10 were calculated using CompuSyn software (ComboSyn Inc.). CI values were scored according to the following criteria CI<1 indicated synergistic activity, CI=1 indicated additive activity and CI>1 indicated […].

[2] = system: SK-N-MC; experiment: combination studies with PV-10, alamar Blue; assay type: cell-based; conditions: in combination with 50 μM PV-10, 96 hours
Experimental: as §1

[3] = system: SK-N-AS; experiment: combination studies with PV-10, alamar Blue; assay type: cell-based; conditions: in combination with 50 μM PV-10, 96 hours
Experimental: as §1

[4] = system: SK-N-BE(2); experiment: combination studies with PV-10, alamar Blue; assay type: cell-based; conditions: in combination with 50 μM PV-10, 96 hours
Experimental: as §1

[5] = system: SK-N-AS, SK-N-BE (2), IMR5 and SK-N-MC cells; experiment: combination studies with PV-10, summary over cell lines; assay type: cell-based; conditions: in combination, 96 hours
Experimental: as §1

[6] = rat; cited from earlier work

combination index (CI) for IC50 of test drug [2] | combination index (CI) for IC50 of test drug [3] | combination index (CI) for IC50 of test drug [4] | SMILES | combination index (CI) for IC50 of test drug [1] | CI values, range over the cell lines [5] | in vivo biological lifetime [6]
0.42 | 0.77 | 0.72 | COc1cccc2c1C(=O)c1c(O)c3c(c(O)c1C2=O)C[C@@](O)(C(=O)CO)C[C@@H]3O[C@H]1C[C@H](N)[C@H](O)[C@H](C)O1 [Doxorubicin, doxorubicin] | 0.38 | 0.42-0.77 | 
0.58 | 0.17 | 0.66 | COc1cc([C@@H]2c3cc4c(cc3[C@@H](O[C@@H]3O[C@@H]5CO[C@@H](C)O[C@H]5[C@H](O)[C@H]3O)[C@H]3COC(=O)[C@H]23)OCO4)cc(OC)c1O [Etoposide, etoposide] | 0.65 | 0.17-0.66 | 
 |  |  | O=C([O-])c1c(Cl)c(Cl)c(Cl)c(Cl)c1-c1c2cc(I)c(=O)c(I)c-2oc2c(I)c([O-])c(I)cc12.[Na+].[Na+] [Rose Bengal, 4,5,6,7-tetrachloro-2′,4′,5′,7′-tetraiodofluorescein disodium] |  |  | a few minutes
0.43 | 0.35 | 0.1 | CC[C@]1(O)C[C@H]2CN(CCc3c([nH]c4ccccc34)[C@@](C(=O)OC)(c3cc4c(cc3OC)N(C=O)[C@H]3[C@@](O)(C(=O)OC)[C@H](OC(C)=O)[C@]5(CC)C=CCN6CC[C@]43[C@@H]65)C2)C1 [Vincristine, vincristine] | 0.2 | 0.1-0.43 | 
